Activity calls are given as the source filed them. The rule behind the calls is not given here.
Assays:
[1] = target: Cholinesterase (Mus musculus) (UniProt Q03311); assay: Inhibition of cholinesterase in mouse skeletal muscle at 2 uM/ml; assay type: tissue-based; details: Muscle tissue
[2] = target: Cholinesterase (Mus musculus) (UniProt Q03311); assay: Inhibition of cholinesterase in mouse skeletal muscle at 10 uM/ml; details: Muscle tissue

Cholinesterase (Mus musculus), sequence (Q03311 whole entry): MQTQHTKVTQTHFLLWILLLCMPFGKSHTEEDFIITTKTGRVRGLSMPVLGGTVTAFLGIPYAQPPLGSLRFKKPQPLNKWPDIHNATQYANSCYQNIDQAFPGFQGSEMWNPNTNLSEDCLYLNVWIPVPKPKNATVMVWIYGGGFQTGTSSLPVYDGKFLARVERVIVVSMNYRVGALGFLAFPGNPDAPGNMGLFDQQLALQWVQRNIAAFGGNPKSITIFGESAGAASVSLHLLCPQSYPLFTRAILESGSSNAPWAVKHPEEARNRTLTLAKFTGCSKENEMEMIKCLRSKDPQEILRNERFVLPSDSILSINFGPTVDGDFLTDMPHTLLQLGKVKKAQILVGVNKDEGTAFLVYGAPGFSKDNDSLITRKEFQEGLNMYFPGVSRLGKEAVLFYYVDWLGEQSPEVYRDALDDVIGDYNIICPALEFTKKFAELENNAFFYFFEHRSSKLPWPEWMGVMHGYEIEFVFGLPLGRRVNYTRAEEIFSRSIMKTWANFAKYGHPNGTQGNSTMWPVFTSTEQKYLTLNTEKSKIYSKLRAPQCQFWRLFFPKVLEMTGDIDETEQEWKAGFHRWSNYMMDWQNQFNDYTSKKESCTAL

SMILES	Activity [1]	Activity [2]
C=C[C@@H]1[C@H]2C=C(C)C[C@]1(NC)c1ccc(=O)[nH]c1C2	Active	–
C=C[C@@H]1[C@H]2C=C(C)C[C@]1(N(C)C)c1ccc(=O)[nH]c1C2	–	inactive
